Measurements from patent US11420973B2, “Amide substituted indole compounds useful as TLR inhibitors” (BRISTOL-MYERS SQUIBB COMPANY, priority 2017, dated 2022).

Key:
human TLR7 = human TLR7 (Homo sapiens (Human), UniProt Q9NYK1); assay: TLR7 inhibition reporter assay (HEK-Blue SEAP reporter, gardiquimod stimulation); assay type: cell-based; details: HEK-Blue cells overexpressing human TLR7, gardiquimod 7.5 μM
human TLR8 = human TLR8 (Homo sapiens (Human), UniProt Q9NR97); assay: TLR8 inhibition reporter assay (HEK-Blue SEAP reporter, R848 stimulation); details: read-out: TLR8 IC50; HEK-Blue cells overexpressing human TLR8, R848 15.9 μM, SEAP reporter;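 also: SEAP driven by IFN-β minimal promoter with NF-κB and AP-1 sites, 22 h incubation, compounds 0.05 nM–50 µM, inhibition scaled between agonist plus DMSO and reference inhibitor wells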
human TLR9 = human TLR9 (Homo sapiens (Human), UniProt Q9NR96); assay: TLR9 inhibition reporter assay (HEK-Blue SEAP reporter, ODN2006 stimulation); details: read-out: TLR9 IC50; HEK-Blue cells overexpressing human TLR9, ODN2006 5 nM, SEAP reporter;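 also: SEAP reporter under IFN-β minimal promoter with five NF-κB and AP-1 sites, 22 h incubation, compounds 0.05 nM–50 µM, inhibition relative to agonist plus DMSO versus known inhibitor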
human TLR9, sequence (Q9NR96 26-1032): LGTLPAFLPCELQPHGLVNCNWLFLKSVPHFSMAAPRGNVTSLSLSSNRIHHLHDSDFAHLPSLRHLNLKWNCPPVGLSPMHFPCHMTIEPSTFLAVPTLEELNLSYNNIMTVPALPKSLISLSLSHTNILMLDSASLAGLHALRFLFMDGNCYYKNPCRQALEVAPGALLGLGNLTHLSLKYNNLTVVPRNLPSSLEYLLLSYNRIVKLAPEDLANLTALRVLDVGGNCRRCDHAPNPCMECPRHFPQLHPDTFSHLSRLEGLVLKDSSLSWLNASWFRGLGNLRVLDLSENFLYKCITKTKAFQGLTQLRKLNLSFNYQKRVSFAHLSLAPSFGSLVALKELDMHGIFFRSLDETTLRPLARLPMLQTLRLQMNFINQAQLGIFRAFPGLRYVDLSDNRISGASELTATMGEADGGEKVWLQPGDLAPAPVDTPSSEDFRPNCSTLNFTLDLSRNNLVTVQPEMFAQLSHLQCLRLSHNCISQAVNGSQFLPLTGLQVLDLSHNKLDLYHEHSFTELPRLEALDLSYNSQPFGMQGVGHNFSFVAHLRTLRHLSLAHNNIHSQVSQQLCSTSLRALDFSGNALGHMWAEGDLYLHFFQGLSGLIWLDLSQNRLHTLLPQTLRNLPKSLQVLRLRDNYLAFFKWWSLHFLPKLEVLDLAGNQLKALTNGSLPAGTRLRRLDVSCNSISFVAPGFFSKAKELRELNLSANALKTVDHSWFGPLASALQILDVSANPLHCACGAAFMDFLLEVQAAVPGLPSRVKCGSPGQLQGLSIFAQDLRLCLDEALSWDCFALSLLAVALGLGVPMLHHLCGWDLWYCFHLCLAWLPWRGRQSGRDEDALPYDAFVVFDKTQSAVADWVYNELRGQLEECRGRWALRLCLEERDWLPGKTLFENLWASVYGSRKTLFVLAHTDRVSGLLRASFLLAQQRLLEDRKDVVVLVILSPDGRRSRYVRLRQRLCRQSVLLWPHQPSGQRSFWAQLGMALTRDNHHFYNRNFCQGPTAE

human TLR7, sequence (Q9NYK1 27-1049): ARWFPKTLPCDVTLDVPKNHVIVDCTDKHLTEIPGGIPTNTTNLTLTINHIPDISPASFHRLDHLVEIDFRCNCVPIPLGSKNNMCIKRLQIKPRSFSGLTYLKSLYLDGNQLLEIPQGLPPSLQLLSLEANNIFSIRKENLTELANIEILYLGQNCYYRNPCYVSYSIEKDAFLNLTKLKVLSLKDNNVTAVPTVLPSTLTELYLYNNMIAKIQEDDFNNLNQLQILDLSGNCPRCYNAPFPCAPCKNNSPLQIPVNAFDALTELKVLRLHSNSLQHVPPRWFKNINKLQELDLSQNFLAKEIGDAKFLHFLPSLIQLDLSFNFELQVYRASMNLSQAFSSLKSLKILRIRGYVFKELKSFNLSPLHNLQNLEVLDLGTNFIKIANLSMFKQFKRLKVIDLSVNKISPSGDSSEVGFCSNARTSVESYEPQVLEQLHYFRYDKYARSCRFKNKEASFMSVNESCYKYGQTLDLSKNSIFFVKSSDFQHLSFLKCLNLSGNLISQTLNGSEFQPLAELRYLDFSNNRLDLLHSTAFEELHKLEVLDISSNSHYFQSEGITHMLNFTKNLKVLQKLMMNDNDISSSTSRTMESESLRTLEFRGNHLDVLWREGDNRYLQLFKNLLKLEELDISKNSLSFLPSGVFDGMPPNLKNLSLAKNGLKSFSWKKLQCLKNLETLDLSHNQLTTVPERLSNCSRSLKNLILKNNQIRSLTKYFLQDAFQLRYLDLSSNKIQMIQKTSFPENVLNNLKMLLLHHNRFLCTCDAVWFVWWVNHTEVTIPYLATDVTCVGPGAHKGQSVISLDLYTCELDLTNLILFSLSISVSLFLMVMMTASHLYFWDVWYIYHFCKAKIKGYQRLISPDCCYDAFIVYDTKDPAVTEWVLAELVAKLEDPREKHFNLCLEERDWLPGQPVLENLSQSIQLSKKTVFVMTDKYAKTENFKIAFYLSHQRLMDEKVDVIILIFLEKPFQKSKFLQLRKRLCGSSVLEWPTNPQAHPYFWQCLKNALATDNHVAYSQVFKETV
human TLR8, sequence (Q9NR97 27-1041): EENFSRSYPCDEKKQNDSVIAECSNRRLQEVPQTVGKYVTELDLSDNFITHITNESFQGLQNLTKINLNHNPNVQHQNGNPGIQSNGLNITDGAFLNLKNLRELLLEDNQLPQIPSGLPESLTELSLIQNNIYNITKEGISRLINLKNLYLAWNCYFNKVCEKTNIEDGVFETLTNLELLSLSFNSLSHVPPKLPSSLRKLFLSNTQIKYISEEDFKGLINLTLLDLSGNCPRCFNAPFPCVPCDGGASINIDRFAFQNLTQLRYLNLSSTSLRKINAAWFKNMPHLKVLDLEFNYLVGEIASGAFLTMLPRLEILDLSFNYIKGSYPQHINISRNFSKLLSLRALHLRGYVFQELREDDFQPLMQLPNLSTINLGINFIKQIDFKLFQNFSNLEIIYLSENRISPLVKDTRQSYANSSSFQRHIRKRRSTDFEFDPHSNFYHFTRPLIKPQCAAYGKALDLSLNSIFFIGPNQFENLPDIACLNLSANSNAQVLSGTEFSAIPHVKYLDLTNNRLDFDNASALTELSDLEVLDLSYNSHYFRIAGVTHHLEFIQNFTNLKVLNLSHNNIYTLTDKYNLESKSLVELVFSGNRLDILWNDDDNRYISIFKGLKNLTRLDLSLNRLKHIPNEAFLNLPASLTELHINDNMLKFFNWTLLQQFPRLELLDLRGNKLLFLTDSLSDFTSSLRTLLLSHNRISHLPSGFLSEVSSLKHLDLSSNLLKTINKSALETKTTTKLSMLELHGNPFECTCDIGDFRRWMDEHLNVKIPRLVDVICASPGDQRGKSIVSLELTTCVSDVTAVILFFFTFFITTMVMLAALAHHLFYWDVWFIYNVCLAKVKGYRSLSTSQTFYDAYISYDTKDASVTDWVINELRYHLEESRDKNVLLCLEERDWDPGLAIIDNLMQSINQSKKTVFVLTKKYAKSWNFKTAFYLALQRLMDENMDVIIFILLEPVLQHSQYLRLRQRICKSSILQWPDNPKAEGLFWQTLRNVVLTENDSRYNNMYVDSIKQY

Row | Structure (SMILES) | IC50 (human TLR7) [nM] | IC50 (human TLR8) [nM] | IC50 (human TLR9) [µM]
1 | Cc1cc(-c2[nH]c3ccc(C(C)C(=O)NC4C[C@H]5CC[C@@H](C4)N5C)cc3c2C(C)C)ccn1 (stereo partly drawn) [Example 214, 2-(3-isopropyl-2-(2-methylpyridin-4-yl)-1H-indol-5-yl)-N-((1R,5S)-8-methyl-8-azabicyclo[3.2.1]octan-3-yl)propanamide] | 107 | 167 | 4.67
2 | Cc1cc(-c2[nH]c3ccc(C(C)(C)C(=O)N[C@H]4CCCC[C@H]4N)cc3c2C(C)C)ccn1 [Example 170, N-((1S,2R)-2-aminocyclohexyl)-2-(3-isopropyl-2-(2-methylpyridin-4-yl)-1H-indol-5-yl)-2-methylpropanamide] | 11 | 51 | 1.66
3 | Cc1cc(-c2[nH]c3ccc(C(C)(C)C(=O)N(C)C4CN5CCC4CC5)cc3c2C(C)C)ccn1 (stereo not drawn) [Example 162, 2-(3-isopropyl-2-(2-methylpyridin-4-yl)-1H-indol-5-yl)-N,2-dimethyl-N-(quinuclidin-3-yl)propanamide] | 24 | 135 | 3.52
4 | CNC(=O)CN1CC2CN(C(=O)c3ccc4[nH]c(-c5ccc(OC)c(OC)c5)c(C(C)C)c4c3)CC2C1 (stereo not drawn) [Example 7, 2-(5-(2-(3,4-dimethoxyphenyl)-3-isopropyl-1H-indole-5-carbonyl)hexahydropyrrolo[3,4-c]pyrrol-2(1H)-yl)-N-methylacetamide] | 343 | 267 | 4.02
5 | Cc1cc(-c2[nH]c3ccc(C(C)(C)C(=O)NC4C[C@H]5CC[C@@H](C4)N5C)cc3c2C(C)C)ccn1 (stereo partly drawn) [Example 166, 2-(3-isopropyl-2-(2-methylpyridin-4-yl)-1H-indol-5-yl)-2-methyl-N-((1R,5S)-8-methyl-8-azabicyclo[3.2.1]octan-3-yl)propanamide] | 22 | 135 | 8.23
6 | Cc1cc(-c2[nH]c3ccc(C(=O)N(C)Cc4cccc(N)c4)cc3c2C(C)C)cc(C)n1 [Example 103, N-(3-aminobenzyl)-2-(2,6-dimethylpyridin-4-yl)-3-isopropyl-N-methyl-1H-indole-5-carboxamide] | 54 | 192 | 27.1
7 | CCc1c(-c2ccc(OC)c(OC)c2)[nH]c2ccc(C(=O)N3CCN(CCO)CC3)cc12 [Example 40, (2-(3,4-dimethoxyphenyl)-3-ethyl-1H-indol-5-yl)(4-(2-hydroxyethyl)piperazin-1-yl)methanone] | 545 | 5.7 | 8.7
8 | Cc1cc(-c2[nH]c3ccc(C(C)C(=O)NC4CN5CCC4CC5)cc3c2C(C)C)ccn1 (stereo not drawn) [Example 192, 2-(3-isopropyl-2-(2-methylpyridin-4-yl)-1H-indol-5-yl)-N-(quinuclidin-3-yl)propanamide] | 71 | 142 | 1.53
9 | Cc1cc(-c2[nH]c3ccc(C(=O)N4CC5CN(C(C)C)CC5C4)cc3c2C(C)C)ccn1 (stereo not drawn) [Example 116, (3-isopropyl-2-(2-methylpyridin-4-yl)-1H-indol-5-yl)(5-isopropylhexahydropyrrolo[3,4-c]pyrrol-2(1H)-yl)methanone] | 117 | 3.6 | 0.985
10 | CCc1c(-c2ccc(OC)c(OC)c2)[nH]c2ccc(C(=O)NCCCN3CCCCC3)cc12 [Example 53, 2-(3,4-dimethoxyphenyl)-3-ethyl-N-(3-(piperidin-1-yl)propyl)-1H-indole-5-carboxamide] | 258 | 8.1 | 2
11 | CCc1c(-c2ccc(OC)c(OC)c2)[nH]c2ccc(C(=O)N(C)Cc3cccnc3)cc12 [Example 22, 2-(3,4-dimethoxyphenyl)-3-ethyl-N-methyl-N-(pyridin-3-ylmethyl)-1H-indole-5-carboxamide] | 356 | 264 | 37.6
12 | CCc1c(-c2ccc(OC)c(OC)c2)[nH]c2ccc(C(=O)N3CC[C@@H](N(C)C)C3)cc12 [Example 29, (R)-(2-(3,4-dimethoxyphenyl)-3-ethyl-1H-indol-5-yl)(3-(dimethylamino)pyrrolidin-1-yl)methanone] | 188 | 34 | 6.18
13 | Cc1cc(-c2[nH]c3ccc(C(C)C(=O)N4CC5CN(C)CC5C4)cc3c2C(C)C)ccn1 (stereo not drawn) [Example 197, 2-(3-isopropyl-2-(2-methylpyridin-4-yl)-1H-indol-5-yl)-1-(5-methylhexahydropyrrolo[3,4-c]pyrrol-2(1H)-yl)propan-1-one] | 200 | 130 | 3.29
14 | CCc1c(-c2ccc(OC)c(OC)c2)[nH]c2ccc(C(=O)N3CCC(n4c(=O)[nH]c5ccccc54)CC3)cc12 [Example 63, 1-(1-(2-(3,4-dimethoxyphenyl)-3-ethyl-1H-indole-5-carbonyl)piperidin-4-yl)-1,3-dihydro-2H-benzo[d]imidazol-2-one] | 801 | 464 | 13.6
15 | CCc1c(-c2ccc(OC)c(OC)c2)[nH]c2ccc(C(=O)NCCCN(C)C)cc12 [Example 75, 2-(3,4-dimethoxyphenyl)-N-(3-(dimethylamino)propyl)-3-ethyl-1H-indole-5-carboxamide] | 124 | 7.6 | 0.25

Further compounds by falling IC50 (human TLR7), results first:

Row | IC50 (human TLR7) [nM] | IC50 (human TLR8) [nM] | IC50 (human TLR9) [µM] | Structure (SMILES)
16 | 657 | 979 | > 50 | Cc1cc(-c2[nH]c3ccc(C(C)C(=O)NCC(C)(C)O)cc3c2C(C)C)ccn1 (stereo not drawn) [Example 131, N-(2-hydroxy-2-methylpropyl)-2-(3-isopropyl-2-(2-methylpyridin-4-yl)-1H-indol-5-yl)propanamide]
17 | 595 | 190 | > 50 | CCc1c(-c2ccc(OC)c(OC)c2)[nH]c2ccc(C(=O)N3CCCN(C(C)=O)CC3)cc12 [Example 35, 1-(4-(2-(3,4-dimethoxyphenyl)-3-ethyl-1H-indole-5-carbonyl)-1,4-diazepan-1-yl)ethan-1-one]
18 | 458 | 387 | 2.62 | Cc1cc(-c2[nH]c3ccc(C(C)C(=O)N[C@@H]4CCNC4)cc3c2C(C)C)ccn1 (stereo partly drawn) [Example 188, 2-(3-isopropyl-2-(2-methylpyridin-4-yl)-1H-indol-5-yl)-N—((R)-pyrrolidin-3-yl)propanamide]
19 | 280 | 194 | 3.94 | CNCC(=O)N1CC2CN(C(=O)c3ccc4[nH]c(-c5ccc(OC)c(OC)c5)c(C(C)C)c4c3)CC2C1 (stereo not drawn) [Example 16, 1-(5-(2-(3,4-dimethoxyphenyl)-3-isopropyl-1H-indole-5-carbonyl)hexahydropyrrolo[3,4-c]pyrrol-2(1H)-yl)-2-(methylamino)ethanone]
20 | 145 | 27 | 30.5 | CNC(=O)c1ccc2[nH]c(-c3ccc(OC)c(OC)c3)c(C(C)C)c2c1 [Example 4, 2-(3,4-dimethoxyphenyl)-3-isopropyl-N-methyl-1H-indole-5-carboxamide]
21 | 137 | 211 | 0.957 | Cc1cc(-c2[nH]c3ccc(C(C)C(=O)N[C@H]4CCNC4)cc3c2C(C)C)ccn1 (stereo partly drawn) [Example 190, 2-(3-isopropyl-2-(2-methylpyridin-4-yl)-1H-indol-5-yl)-N—((S)-pyrrolidin-3-yl)propanamide]
22 | 2.9 | 1.4 | 0.594 | CCN(CCN(C)C)C(=O)c1ccc2[nH]c(-c3cc(C)nc(C)c3)c(C(C)C)c2c1 [Example 93, N-(2-(dimethylamino)ethyl)-2-(2,6-dimethylpyridin-4-yl)-N-ethyl-3-isopropyl-1H-indole-5-carboxamide]
